Molecular target: T1, DLK (Homo sapiens, UniProt Q12852)
T1 construct: N-terminally GST-tagged DLK (catalytic domain amino acid 1-520) (Carna Bioscience); GST (N); purchased Carna Bioscience
T1 sequence (Q12852 1-520): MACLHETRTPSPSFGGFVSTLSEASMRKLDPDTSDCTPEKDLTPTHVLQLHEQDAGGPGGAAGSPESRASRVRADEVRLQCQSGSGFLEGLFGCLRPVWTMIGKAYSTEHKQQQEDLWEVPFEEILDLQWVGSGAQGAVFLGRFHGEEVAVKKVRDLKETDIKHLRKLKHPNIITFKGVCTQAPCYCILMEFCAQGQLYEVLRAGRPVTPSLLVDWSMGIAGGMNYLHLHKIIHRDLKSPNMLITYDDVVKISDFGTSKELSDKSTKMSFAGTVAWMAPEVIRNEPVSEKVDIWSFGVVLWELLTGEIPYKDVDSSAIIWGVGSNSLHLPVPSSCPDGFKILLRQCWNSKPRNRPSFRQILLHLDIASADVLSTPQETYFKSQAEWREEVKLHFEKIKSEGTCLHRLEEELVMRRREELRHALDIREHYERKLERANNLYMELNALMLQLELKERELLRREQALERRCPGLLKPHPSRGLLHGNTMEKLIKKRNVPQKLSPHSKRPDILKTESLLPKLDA
Assay: DLK TR-FRET assay
Format: biochemical
Conditions: 5 nM GST-tagged DLK (catalytic domain amino acid 1-520), 40 nM HIS-tagged MKK4 K131M substrate, 30 μM ATP, 60 minutes
Experimental: DLK TR-FRET assay: DLK kinase reactions (20 μL) containing 5 nM N-terminally GST-tagged DLK (catalytic domain amino acid 1-520) (Carna Bioscience), 40 nM N-terminally HIS-tagged MKK4 K131M substrate, and 30 μM ATP in kinase reaction buffer (50 mM HEPES, pH 7.5, 0.01% Triton X-100, 0.01% Bovine γ-Globulins, 2 mM DTT, 10 mM MgCl2 and 1 mM EGTA), and testing compound 1:3 serial diluted starting at 20 uM were incubated at ambient temperature for 60 minutes in 384 well OptiPlate (Perkin Elmer). To quench kinase reactions and detect phosphorylated MKK4, 15 μL of TR-FRET antibody mixture containing 2 nM anti-phosphorylated MKK4 labeled with Europium cryptate (Cisbio) and 23 nM anti-HIS labeled with D2 (Cisbio) in detection buffer (25 mM Tris pH 7.5, 100 mM NaCl, 100 mM EDTA, 0.01% Tween-20, and 200 mM KF) was added to the reaction mixture. The detection mixture was incubated for 3 hours at ambient temperature and the TR-FRET was detected with an EnVision multilabel plate reader (Perkin-Elmer) using the LANCE/DELFIA Dual Enh label from Perkin-Elmer (excitation filter: UV2 (TRF) 320 and emission filters: APC 665 and Europium 615).

| Structure (SMILES) | Ki |
| --- | --- |
| N#Cc1ccnc(Nc2cc(C3(C#N)CCOCC3)cc(N3CCC3)n2)c1 [Example 75, 2-[6-Azetidin-1-yl-4-(4-cyano-tetrahydro-pyran-4-yl)-pyridin-2-ylamino]-isonicotinonitrile] | 0.013 µM |
| FC(F)c1ccnc(Nc2cc(C3CCN(C4COC4)CC3)cc(Cl)n2)c1 [Example 76, (6-Chloro-1′-oxetan-3-yl-1′,2′,3′,4′,5′,6′-hexahydro-[4,4′]bipyridinyl-2-yl)-(4-difluoromethyl-pyridin-2-yl)-amine] | 0.016 µM |
| N#Cc1ccnc(Nc2cc(C3(C#N)CCOCC3)cc(Cl)n2)c1 [Example 77, 2-[6-Chloro-4-(4-cyano-tetrahydro-pyran-4-yl)-pyridin-2-ylamino]-isonicotinonitrile] | 0.19 µM |
| N#Cc1ccnc(Nc2cc(C3CCN(C4COC4)CC3)cc(N3CCCC3=O)n2)c1 [Example 79, 2-[1′-Oxetan-3-yl-6-(2-oxo-pyrrolidin-1-yl)-1′,2′,3′,4′,5′,6′-hexahydro-[4,4′]bipyridinyl-2-ylamino]-isonicotinonitrile] | 0.035 µM |
| Cc1cc(C2CCOCC2)cc(Nc2cc(C#N)ccn2)n1 [Example 80, 2-[6-Methyl-4-(tetrahydro-pyran-4-yl)-pyridin-2-ylamino]-isonicotinonitrile] | 0.058 µM |
| N#Cc1ccnc(Nc2cc(C3CCOCC3)cc(N3CC4CC3C4)n2)c1 [Example 81, 2-[6-(2-Aza-bicyclo[2.1.1]hex-2-yl)-4-(tetrahydro-pyran-4-yl)-pyridin-2-ylamino]-isonicotinonitrile] | 0.0114 µM |
| N#Cc1ccnc(Nc2cc(C3CCOCC3)cc(N3CC4(COC4)C3)n2)c1 [Example 82, 2-[6-(2-Oxa-6-aza-spiro[3.3]hept-6-yl)-4-(tetrahydro-pyran-4-yl)-pyridin-2-ylamino]-isonicotinonitrile] | 0.1 µM |
| N#Cc1ccnc(Nc2cc(C3CCOCC3)cc(N3CCC4(CCOC4)C3)n2)c1 (centres unmarked) [Example 85, 2-[6-(2-Oxa-7-aza-spiro[4.4]non-7-yl)-4-(tetrahydro-pyran-4-yl)-pyridin-2-ylamino]-isonicotinonitrile] | 0.015 µM |
| N#Cc1ccnc(Nc2cc(C3CCOCC3)cc(N3CC(F)C3)n2)c1 [Example 86, 2-[6-(3-Fluoro-azetidin-1-yl)-4-(tetrahydro-pyran-4-yl)-pyridin-2-ylamino]-isonicotinonitrile] | 0.0119 µM |
| COC1CN(c2cc(C3CCOCC3)cc(Nc3cc(C#N)ccn3)n2)C1 [Example 87, 2-[6-(3-Methoxy-azetidin-1-yl)-4-(tetrahydro-pyran-4-yl)-pyridin-2-ylamino]-isonicotinonitrile] | 0.051 µM |
| N#Cc1ccnc(Nc2cc(C3CCN(C4COC4)CC3)cc(N3CC4(CCOC4)C3)n2)c1 [Example 93, 2-[6-(6-Oxa-2-aza-spiro[3.4]oct-2-yl)-1′-oxetan-3-yl-1′,2′,3′,4′,5′,6′-hexahydro-[4,4′]bipyridinyl-2-ylamino]-isonicotinonitrile] | 0.02 µM |
| COC1CN(c2cc(C3CCN(C4COC4)CC3)cc(Nc3cc(C#N)ccn3)n2)C1 [Example 96, 2-[6-(3-Methoxy-azetidin-1-yl)-1′-oxetan-3-yl-1′,2′,3′,4′,5′,6′-hexahydro-[4,4′]bipyridinyl-2-ylamino]-isonicotinonitrile] | 0.018 µM |
| N#Cc1ccnc(Nc2cc(C3CCN(C4COC4)CC3)cc(N3CC4(COC4)C3)n2)c1 [Example 98, 2-[6-(2-Oxa-6-aza-spiro[3.3]hept-6-yl)-1′-oxetan-3-yl-1′,2′,3′,4′,5′,6′-hexahydro-[4,4′]bipyridinyl-2-ylamino]-isonicotinonitrile] | 0.0422 µM |
| N#Cc1ccnc(Nc2cc(C3CCOCC3)cc(N3CC4CC(F)(F)C4C3)n2)c1 (centres unmarked) [Example 100, 2-[6-(6,6-Difluoro-3-aza-bicyclo[3.2.0]hept-3-yl)-4-(tetrahydro-pyran-4-yl)-pyridin-2-ylamino]-isonicotinonitrile] | 0.011 µM |
| COC1CCN(c2cc(C3CCOCC3)cc(Nc3cc(C#N)ccn3)n2)C1 (centres unmarked) [Example 101, 2-[6-(3-Methoxy-pyrrolidin-1-yl)-4-(tetrahydro-pyran-4-yl)-pyridin-2-ylamino]-isonicotinonitrile] | 0.038 µM |
| N#Cc1ccnc(Nc2cc(C3CCOCC3)cc(N3CC4(CCOC4)C3)n2)c1 [Example 102, 2-[6-(6-Oxa-2-aza-spiro[3.4]oct-2-yl)-4-(tetrahydro-pyran-4-yl)-pyridin-2-ylamino]-isonicotinonitrile] | 0.088 µM |

Now those with a lower Ki, led by results:

| Ki | Structure (SMILES) |
| --- | --- |
| 0.008 µM | N#Cc1ccnc(Nc2cc(C3CCN(C4COC4)CC3)cc(N3CC(F)(F)C3)n2)c1 [Example 89, 2-[6-(3,3-Difluoro-azetidin-1-yl)-1′-oxetan-3-yl-1′,2′,3′,4′,5′,6′-hexahydro-[4,4′]bipyridinyl-2-ylamino]-isonicotinonitrile] |
| 0.0073 µM | N#Cc1ccnc(Nc2cc(C3CCN(C4COC4)CC3)cc(N3CCC4(CCOC4)C3)n2)c1 (centres unmarked) [Example 95, 2-[6-(2-Oxa-7-aza-spiro[4.4]non-7-yl)-1′-oxetan-3-yl-1′,2′,3′,4′,5′,6′-hexahydro-[4,4′]bipyridinyl-2-ylamino]-isonicotinonitrile] |
| 0.0067 µM | N#Cc1ccnc(Nc2cc(C3CCN(C4COC4)CC3)cc(N3CC(F)C3)n2)c1 [Example 91, 2-[6-(3-Fluoro-azetidin-1-yl)-1′-oxetan-3-yl-1′,2′,3′,4′,5′,6′-hexahydro-[4,4′]bipyridinyl-2-ylamino]-isonicotinonitrile] |
| 0.0046 µM | N#Cc1ccnc(Nc2cc(C3CCOCC3)cc(N3CCC4CC43)n2)c1 (centres unmarked) [Example 83, 2-[6-(2-Aza-bicyclo[3.1.0]hex-2-yl)-4-(tetrahydro-pyran-4-yl)-pyridin-2-ylamino]-isonicotinonitrile] |
| 0.0041 µM | N#Cc1ccnc(Nc2cc(C3CCN(C4COC4)CC3)cc(N3CC4(CCC4(F)F)C3)n2)c1 [Example 94, 2-[6-(5,5-Difluoro-2-aza-spiro[3.3]hept-2-yl)-1′-oxetan-3-yl-1′,2′,3′,4′,5′,6′-hexahydro-[4,4′]bipyridinyl-2-ylamino]-isonicotinonitrile] |
| 0.0031 µM | N#Cc1ccnc(Nc2cc(C3CCOCC3)cc(Cl)n2)c1 [Example 78, 2-[6-Chloro-4-(tetrahydro-pyran-4-yl)-pyridin-2-ylamino]-isonicotinonitrile] |
| 0.0028 µM | COC1CCN(c2cc(C3CCN(C4COC4)CC3)cc(Nc3cc(C#N)ccn3)n2)C1 (centres unmarked) [Example 88, 2-[6-(3-Methoxy-pyrrolidin-1-yl)-1-oxetan-3-yl-1′,2′,3′,4′,5′,6′-hexahydro-[4,4′]bipyridinyl-2-ylamino]-isonicotinonitrile] |
| 0.0019 µM | N#Cc1ccnc(Nc2cc(C3CCN(C4COC4)CC3)cc(N3CC4CC3C4)n2)c1 [Example 90, 2-[6-(2-Aza-bicyclo[2.1.1]hex-2-yl)-1′-oxetan-3-yl-1′,2′,3′,4′,5′,6′-hexahydro-[4,4′]bipyridinyl-2-ylamino]-isonicotinonitrile] |
| 0.0016 µM | N#Cc1ccnc(Nc2cc(C3CCOCC3)cc(N3CC4CC4C3)n2)c1 (centres unmarked) [Example 84, 2-[6-(3-Aza-bicyclo[3.1.0]hex-3-yl)-4-(tetrahydro-pyran-4-yl)-pyridin-2-ylamino]-isonicotinonitrile] |
| 0.0009 µM | N#Cc1ccnc(Nc2cc(C3CCN(C4COC4)CC3)cc(N3CCC4CC43)n2)c1 (centres unmarked) [Example 99, 2-[6-(2-Aza-bicyclo[3.1.0]hex-2-yl)-1′-oxetan-3-yl-1′,2′,3′,4′,5′,6′-hexahydro-[4,4′]bipyridinyl-2-ylamino]-isonicotinonitrile] |
| 0.0007 µM | N#Cc1ccnc(Nc2cc(C3CCN(C4COC4)CC3)cc(N3CC4CC4C3)n2)c1 (centres unmarked) [Example 92, 2-[6-(3-Aza-bicyclo[3.1.0]hex-3-yl)-1′-oxetan-3-yl-1′,2′,3′,4′,5′,6′-hexahydro-[4,4′]bipyridinyl-2-ylamino]-isonicotinonitrile] |
| 0.0006 µM | N#Cc1ccnc(Nc2cc(C3CCN(C4COC4)CC3)cc(N3CC4CC(F)(F)C4C3)n2)c1 (centres unmarked) [Example 97, 2-[6-(6,6-Difluoro-3-aza-bicyclo[3.2.0]hept-3-yl)-1′-oxetan-3-yl-1′,2′,3′,4′,5′,6′-hexahydro-[4,4′]bipyridinyl-2-ylamino]-isonicotinonitrile] |
| 0.0002 µM | C[C@@H]1CCCN1c1cc(C2(C#N)CCOCC2)cc(Nc2cc(C#N)ccn2)n1 [Example 74, 2-[4-(4-Cyano-tetrahydro-pyran-4-yl)-6-((R)-2-methyl-pyrrolidin-1-yl)-pyridin-2-ylamino]-isonicotinonitrile] |

Source: patent publication US9399636B2, “Substituted dipyridylamines and uses thereof” (Genentech, Inc., priority 2012, dated 2016)
